Read-outs that look alike come from different tables or passages of the source.
How the values were obtained:
clinical = settings: both, human, in vivo; for AUC(0-inf): AUCinf
Description: The final treatment administered was 3.8 mg on a 10 cm^2 patch using an applicator with 0.52 Joule of application energy in the intracutaneous microneedle system described herein. The products tested were:
This was a single-center, open-label, randomized five-way crossover study (Part 1) followed by a sequential study of two additional treatments (Parts 2 and 3). After obtaining informed consent and establishing eligibility, each subject received each of the seven study treatments once, followed by in-clinic monitoring and extensive blood sample collection for pharmacokinetic analysis. […] Plasma samples from the initial dosing days were sent to the analytical laboratory for analysis, and tolerability for each of the dose levels was summarized. […] During Part 3, subjects received a single 3.8 mg patch (applied with a 0.52 J applicator) and also completed identical procedures to the previous dosing days. After completion of the seven dosing days, subjects were assessed one final time and dismissed from the study.
Twenty subjects were enrolled in the study, 10 males and 10 females. The subjects mean age was 29 years±3.5 years with a mean BMI of 24.4±3.5.
PK parameters were summarized by treatment group using descriptive statistics (arithmetic means, standard deviations, coefficients of variation, sample size, minimum, maximum, and median).
Graphs of apparent dose linearity and proportionality of PK parameters (AUCt, AUCinf and Cmax) were compiled.

[1] = In vitro dissolution, USP Paddle over Disk apparatus (USP apparatus 5); format: physicochemical; settings: M207 1.9 mg patch
Description: In vitro dissolution of […] 1.9 mg patches were evaluated using standard USP Paddle over Disk apparatus (USP apparatus 5) with Distek […] 6-position dissolution tester. The paddle height was set at 25 mm above patch and rotated at 50 RPM. An USP vessel was filled with degassed 500 mL PBS dissolution medium and the temperature was controlled at 32° C. A full patch assembly containing the coated patch adhered to the center of an inner ring and then attached to an outer ring was inserted along the vessel wall into the vessel with the coated microprojections facing upright. […] […] patches stored at room temperature and at 40° C./75% relative humidity for 10 months were evaluated.

[2] = 10 mg oral, Seaber1997, cited from earlier work
migraine = settings: cited from earlier work
[3] = NASAL 2.5 mg, 1 hour, Charlesworth et al, 2003
[4] = NASAL 2.5 mg, 2 hour, Charlesworth et al, 2003
[5] = NASAL 2.5 mg, 4 hour, Charlesworth et al, 2003
[6] = ODT 2.5 mg, 1 hour, Dowson et al, 2002
[7] = ODT 2.5 mg, 2 hour, Dowson et al, 2002
[8] = TABLET 2.5 mg, 1 hour, Pascual et al, 2000
[9] = TABLET 2.5 mg, 1 hour, Steiner et al, 2003
[10] = TABLET 2.5 mg, 2 hour, Pascual et al, 2000
[11] = TABLET 2.5 mg, 2 hour, Steiner et al, 2003
[12] = TABLET 5 mg, 1 hour, Dahlof et al 1998
[13] = TABLET 5 mg, 1 hour, Geraud et al, 2000
[14] = TABLET 5 mg, 2 hour, Dahlof et al 1998
[15] = TABLET 5 mg, 2 hour, Geraud et al, 2000
[16] = TABLET 5 mg, 4 hour, Geraud et al, 2000
[17] = TABLET 10 mg, 1 hour, Dahlof et al 1998
[18] = TABLET 10 mg, 2 hour, Dahlof et al 1998

Tmax, Mean (SD) (clinical): 17.10 (11.82)
Tmax, Median (clinical): 17.5 min
t1/2, Mean (SD) (clinical): 91.70 (18.7)
t1/2, Median (clinical): 96.2 min
AUC(0-t) (clinical; 0.48 mg, AUC2 hrs, Mean (SD)): 2.11 ng·h/mL
AUC(0-t) (clinical; 0.48 mg, AUC2 hrs, Median): 2.11 ng·h/mL
AUC(0-inf) (clinical; 0.48 mg, Mean (SD)): 3.81 ng·h/mL
AUC(0-inf) (clinical; 0.48 mg, Median): 3.78 ng·h/mL
AUC(0-t) (clinical; 0.48 mg, AUCt, Mean (SD)): 2.81 ng·h/mL
AUC(0-t) (clinical; 0.48 mg, AUCt, Median): 2.78 ng·h/mL
Cmax (clinical; 0.48 mg, Mean (SD)): 1.84 ng/mL
Cmax (clinical; 0.48 mg, Median): 1.8 ng/mL
Tmax (clinical; 0.48 mg, Tmax, Mean (SD)): 17.3 min
Tmax (clinical; 0.48 mg, Tmax, Median): 20 min
half-life (clinical; 0.48 mg, t1/2, Mean (SD)): 69.1 min
half-life (clinical; 0.48 mg, t1/2, Median): 64.6 min
AUCinf, Median (clinical; 1.9 mg): 14.5 ng·h/mL
AUC(0-t) (clinical; 1.9 mg, AUC2 hrs, Mean (SD)): 7.36 ng·h/mL
AUC(0-t) (clinical; 1.9 mg, AUC2 hrs, Median): 7.75 ng·h/mL
AUC(0-inf) (clinical; 1.9 mg, Mean (SD)): 14.1 ng·h/mL
AUC(0-t) (clinical; 1.9 mg, AUCt, Mean (SD)): 12.3 ng·h/mL
AUC(0-t) (clinical; 1.9 mg, AUCt, Median): 12.7 ng·h/mL
Cmax (clinical; 1.9 mg, Mean (SD)): 6.76 ng/mL
Cmax (clinical; 1.9 mg, Median): 6.4 ng/mL
Tmax (clinical; 1.9 mg, Tmax, Mean (SD)): 17.9 min
Tmax (clinical; 1.9 mg, Tmax, Median): 20 min
half-life (clinical; 1.9 mg, t1/2, Mean (SD)): 87.8 min
half-life (clinical; 1.9 mg, t1/2, Median): 84.7 min
t1/2, Mean (SD) (clinical; 3.8 mg): 91.00 (18.80)
AUC(0-t) (clinical; 3.8 mg, AUC2 hrs, Mean (SD)): 19.3 ng·h/mL
AUC(0-t) (clinical; 3.8 mg, AUC2 hrs, Median): 18.4 ng·h/mL
AUC(0-inf) (clinical; 3.8 mg, Mean (SD)): 33.8 ng·h/mL
AUC(0-inf) (clinical; 3.8 mg, Median): 32.2 ng·h/mL
AUC(0-t) (clinical; 3.8 mg, AUCt, Mean (SD)): 31.6 ng·h/mL
AUC(0-t) (clinical; 3.8 mg, AUCt, Median): 29.9 ng·h/mL
Cmax (clinical; 3.8 mg, Mean (SD)): 22.6 ng/mL
Cmax (clinical; 3.8 mg, Median): 19.9 ng/mL
Tmax (clinical; 3.8 mg, Tmax, Mean (SD)): 16.1 min
Tmax (clinical; 3.8 mg, Tmax, Median): 15 min
half-life (clinical; 3.8 mg, t1/2, Median): 87.2 min
Tmax (clinical; Tmax, Mean (SD)): 18.4 min
Tmax (clinical; Tmax, Median): 20 min
Tmax (clinical; mean Tmax): 16.1 to 18.4 min
Cmax (clinical; po, 2.5 mg, Median): 3.7 ng/mL
half-life (clinical; t1/2, Mean (SD)): 77.2 min
half-life (clinical; t1/2, Median): 82 min
Percent Dissolution (% D) ([1]; E-beam irradiated, stored at 40° C./75% RH for 10 months, 0 s): 0%
Percent Dissolution (% D) ([1]; E-beam irradiated, stored at 40° C./75% RH for 10 months, 20 s): 5-10%
Percent Dissolution (% D) ([1]; E-beam irradiated, stored at 40° C./75% RH for 10 months, 40 s): 10-50%
Percent Dissolution (% D) ([1]; E-beam irradiated, stored at 40° C./75% RH for 10 months, 60 s): 50-100%
Percent Dissolution (% D) ([1]; E-beam irradiated, stored at 40° C./75% RH for 10 months, 80 s): 100%
Percent Dissolution (% D) ([1]; E-beam irradiated, stored at 40° C./75% RH for 10 months, 100 s): 100%
Percent Dissolution (% D) ([1]; E-beam irradiated, stored at RT for 10 months, 0 s): 0%
Percent Dissolution (% D) ([1]; E-beam irradiated, stored at RT for 10 months, 20 s): 60-80%
Percent Dissolution (% D) ([1]; E-beam irradiated, stored at RT for 10 months, 40 s): 90-100%
Percent Dissolution (% D) ([1]; E-beam irradiated, stored at RT for 10 months, 60 s): 100%
Percent Dissolution (% D) ([1]; E-beam irradiated, stored at RT for 10 months, 80 s): 100%
Percent Dissolution (% D) ([1]; E-beam irradiated, stored at RT for 10 months, 100 s): 100%
Percent Dissolution (% D) ([1]; non-irradiated, stored at 40° C./75% RH for 10 months, 0 s): 0%
Percent Dissolution (% D) ([1]; non-irradiated, stored at 40° C./75% RH for 10 months, 20 s): 0%
Percent Dissolution (% D) ([1]; non-irradiated, stored at 40° C./75% RH for 10 months, 40 s): 10-40%
Percent Dissolution (% D) ([1]; non-irradiated, stored at 40° C./75% RH for 10 months, 60 s): 90-100%
Percent Dissolution (% D) ([1]; non-irradiated, stored at 40° C./75% RH for 10 months, 80 s): 100%
Percent Dissolution (% D) ([1]; non-irradiated, stored at 40° C./75% RH for 10 months, 100 s): 100%
Compound: CN(C)CCc1c[nH]c2ccc(C[C@H]3COC(=O)N3)cc12 [Zolmitriptan, zolmitriptan]
AUC0-last ([2]; (F)): 108.6 ng·h/mL
Cmax ([2]; (F)): 20.9 ng/mL
AUC0-last ([2]; (M)): 84.4 ng·h/mL
Cmax ([2]; (M)): 16.6 ng/mL
% PAIN FREE (migraine; [3]): 10.6%
% PAIN RELIEF (migraine; [3]): 40.2%
% PAIN FREE (migraine; [4]): 21.0%
% PAIN RELIEF (migraine; [4]): 55.4%
% PAIN FREE (migraine; [5]): 38.4%
% PAIN RELIEF (migraine; [5]): 63.4%
% PAIN FREE (migraine; [6]): 7.8%
% PAIN RELIEF (migraine; [6]): 45.0%
% PAIN FREE (migraine; [7]): 27.0%
% PAIN RELIEF (migraine; [7]): 63.0%
% PAIN FREE (migraine; ODT 2.5 mg, 4 hour, Dowson et al, 2002): 37.0%
% PAIN FREE (migraine; [8]): 10.4%
% PAIN RELIEF (migraine; [8]): 35.3%
% PAIN FREE (migraine; [9]): 5.7%
% PAIN RELIEF (migraine; [9]): 25.1%
% PAIN FREE (migraine; [10]): 35.6%
% PAIN RELIEF (migraine; [10]): 66.8%
% PAIN FREE (migraine; [11]): 26.3%
% PAIN RELIEF (migraine; [11]): 59.6%
% PAIN RELIEF (migraine; TABLET 2.5 mg, 4 hour, Steiner et al, 2003): 25.1%
% PAIN FREE (migraine; [12]): 10.0%
% PAIN RELIEF (migraine; [12]): 44.0%
% PAIN FREE (migraine; [13]): 7.8%
% PAIN RELIEF (migraine; [13]): 34.2%
% PAIN FREE (migraine; [14]): 39.0%
% PAIN RELIEF (migraine; [14]): 66.0%
% PAIN FREE (migraine; [15]): 29.3%
% PAIN RELIEF (migraine; [15]): 58.7%
% PAIN FREE (migraine; [16]): 54.6%
% PAIN RELIEF (migraine; [16]): 80.5%
% PAIN FREE (migraine; [17]): 9.0%
% PAIN RELIEF (migraine; [17]): 40.0%
% PAIN FREE (migraine; [18]): 39.0%
% PAIN RELIEF (migraine; [18]): 71.0%
pain freedom at 2 hours (migraine; lowest oral dose): 29%
pain relief at 2 hours (migraine; lowest oral dose): 62%

Reference: US11839683B2, “Method of rapidly achieving therapeutic concentrations of triptans for treatment of migraines” (EMERGEX USA CORPORATION, priority 2016, dated 2023)
